Results reported in patent US20240082273A1, “NEUROKININ INHIBITORS SUCH AS APREPITANT FOR TREATING NON SMALL CELL LUNG CARCINOMA OR BREAST CANCER WITHOUT MUTATIONS” (priority 2020, published 2024).

Assays:
[1] = tested on: A549; test: MTT proliferation, A549; type: cell-based, human; conditions: 48 hours
Text: (§1) EGFR, ALK and ROS1 are key molecular factors that may be used to determine pathological classification, prognosis, therapeutics and behaviour in patients with lung cancer. EGFR, ALK and ROS1 are biomarkers routinely analysed in the clinical practice of the management of patients with NSCLC. NSCLC with molecular profile EGFR-/ALK-/ROS1- presents a better response to treatment with the NK1 inhibitor aprepitant, compared to lung cancer with different profiles (in particular, EGFR+/ALK-/ROS1- and EGFR-/ALK+/ROS1-, in which EGFR and ALK respectively contain mutations relative to their wild type gene). Commercial lines of lung cancer were used as shown in Table 2 together with their molecular profile. The molecular profile of the cancer cell lines was determined by sequencing and can be consulted in the Cancer Cell Line Encyclopaedia database of public access available at the url: https://portals.broadinstitute.org/ccle All cells were cultured in wells under vendor-recommended conditions and exposed to different concentrations of aprepitant for 48 hours. In each case a group of wells of cells were used to which no treatment was applied and which were considered as controls. At 48 hours the number of cells was measured. Eight cell lines of human were used for the study of NK1 inhibitors (Table 3). All of them were maintained in culture in their respective culture media (Gibco,Thermo Fisher Scientific) supplemented with 10% foetal bovine serum (FBS) (Gibco, Thermo Fisher Scientific), 2 mM L-Glutamine (Gln) (Sigma-Aldrich, Merk), and […] and […] Gibco, Thermo Fisher Scientific) in a humidified incubator at 37° C. and 5% CO2. Cell culture media used are Dulbecco's Modified Eagle Medium (DMEM), and RPMI Medium 1640 (RPMI-1640). To measure cell viability, the cytotoxicity of drugs in culture was evaluated using the 3-(4,5-Dimethyl-2-thiazolyl)-2,5-diphenyl-2H-tetrazolium bromide (MTT) reduction assay. This assay assesses cell viability through the indirect measurement of the activity of reductases that convert yellow soluble MTT into purple insoluble formazan salts. As MTT can only be reduced when these enzymes are active, the reaction is used as an indicator of the cell metabolic competence and, therefore, of viability. A variable number of cells (depending on the cell line) were seeded in 96 multi-well plates and grown during 24 hours. The following day, the culture medium was aspirated and fresh culture medium with the drug dissolved was added to the wells. After 24 hours or 48 hours cell viability was measurement by adding 10 μl of a 5 mg/ml MTT solution (M5655; Sigma-Aldrich) and 100 μl of HCl 0.01M-SDS 10% solution 4 hours later. After 24 hours, the absorbance was measured at 595 nm, using a multi-well plate reader (iMark, Bio-rad). Each condition was tested 5 times, obtaining 5 values of absorbance. All sample measurements were corrected using the blank (culture medium without cells) mean absorbance value, and normalized to positive control to determinate relative cell viability for each condition at 24 and 48 hours.

[2] = tested on: lung cancer cell line with molecular profile EGFR+/ALK−/ROS1− (HCC4006); test: MTT proliferation, NSCLC cell line with EGFR+/ALK−/ROS1− profile; type: cell-based, human; conditions: 48 hours
Text: as §1

[3] = tested on: breast cancer cell lines ER−/PR−/HER2− (MDAMB231, MDAMB435, MDAMB468); test: MTT proliferation, breast cancer cell lines ER−/PR−/HER2−; type: cell-based, human; conditions: for Mean proliferation: 48 hours
Description: All cells were cultured in wells under vendor-recommended conditions and exposed to different concentrations of aprepitant for 48 hours. In each case a group of wells of cells were used to which no treatment was applied and which were considered as controls. At 48 hours the number of cells was measured. To measure cell viability, the cytotoxicity of drugs in culture was evaluated using the 3-(4,5-Dimethyl-2-thiazolyl)-2,5-diphenyl-2H-tetrazolium bromide (MTT) reduction assay. This assay assesses cell viability through the indirect measurement of the activity of reductases that convert yellow soluble MTT into purple insoluble formazan salts. As MTT can only be reduced when these enzymes are active, the reaction is used as an indicator of the cell metabolic competence and, therefore, of viability. A variable number of cells (depending on the cell line) were seeded in 96 multi-well plates and grown during 24 hours. The following day, the culture medium was aspirated and fresh culture medium with the drug dissolved was added to the wells. After 24 hours or 48 hours cell viability was measurement by adding 10 μl of a 5 mg/ml MTT solution (M5655; Sigma-Aldrich) and 100 μl of HCl 0.01M-SDS 10% solution 4 hours later. After 24 hours, the absorbance was measured at 595 nm, using a multi-well plate reader (iMark, Bio-rad). Each condition was tested 5 times, obtaining 5 values of absorbance. All sample measurements were corrected using the blank (culture medium without cells) mean absorbance value, and normalized to positive control to determinate relative cell viability for each condition at 24 and 48 hours.

[4] = Xenograft mouse safety model (body weight, autopsy); type: in vivo, C57BL/6J mice
Description: Fosaprepitant dimeglumine salt (CAS No 265121-04-8) was purchased from Selleck Chemicals and administered intraperitoneally at 30, 60 and 100 mg/kg dose, once a day. Fosaprepitant is a pro-drug available for parenteral administration that in the body, once administered, becomes aprepitant.
3LL cells (0.6×10^6 per mouse) or B16F10 cells (1×10^6 per mouse) were subcutaneously injected into the right flank of C57BL/6J mice (Charles River) with matrigel (Matrigel Membrane Matrix, Corning) at 50% v/v. Tumour growth was evaluated every 2/3 days. Animal vital parameters were monitored daily. When the tumours reached an average volume of 100-150 mm ^3, mice were randomized into cohorts of 6 animals each and treatments were administered for 7-9 days. Groups and regimens for each experiment are described in Table 1. Animals of the control group were dosed with equal volume of vehicle. Animals were euthanized according to institutional guidelines and tumour samples were excised. Tumours were snap-frozen in OCT medium (Sakura Tissue Tek) or fixed in PFA and embedded in paraffin. Several internal organs were also excised and fixed in PFA for future studies.

C[C@@H](O[C@H]1OCCN(Cc2nc(=O)[nH][nH]2)[C@H]1c1ccc(F)cc1)c1cc(C(F)(F)F)cc(C(F)(F)F)c1 [Aprepitant]
Mean proliferation ([1]; aprepitant 1 μM): 96.56
Mean proliferation ([1]; aprepitant 3 μM): 94.80
Mean proliferation ([1]; aprepitant 5 μM): 64.40
Mean proliferation ([1]; aprepitant 10 μM): 52.17
Mean proliferation ([1]; aprepitant 20 μM): 40.48
Mean proliferation ([1]; aprepitant 30 μM): 35.59
Mean proliferation ([1]; aprepitant 40 μM): 21.55
Mean proliferation ([1]; aprepitant 50 μM): 9.17
Mean proliferation ([1]; aprepitant 60 μM): 11.36
Mean proliferation ([2]; aprepitant 1 μM): 101.53
Mean proliferation ([2]; aprepitant 3 μM): 99.73
Mean proliferation ([2]; aprepitant 5 μM): 96.4
Mean proliferation ([2]; aprepitant 10 μM): 89.14
Mean proliferation ([2]; aprepitant 20 μM): 69.95
Mean proliferation ([2]; aprepitant 30 μM): 54.9
Mean proliferation ([2]; aprepitant 40 μM): 38.12
Mean proliferation ([2]; aprepitant 50 μM): 24.82
Mean proliferation ([2]; aprepitant 60 μM): 14.95
inhibition at 20 µM ([3]; Homo sapiens, concentration of 20 μM (FIG. 5), read-out: growth inhibition): ~60%
Mean proliferation ([3]; aprepitant 0.3 μM): 98.63
Mean proliferation ([3]; aprepitant 1 μM): 97.94
Mean proliferation ([3]; aprepitant 3 μM): 98.98
Mean proliferation ([3]; aprepitant 10 μM): 74.02
Mean proliferation ([3]; aprepitant 20 μM): 42.89
Mean proliferation ([3]; aprepitant 30 μM): 24.11
Mean proliferation ([3]; aprepitant 40 μM): 7.53
Mean proliferation ([3]; aprepitant 50 μM): 1.89
Mean proliferation ([3]; aprepitant 60 μM): 6.77
triple negative breast carcinoma proliferation in culture relative to ER+/PR+/HER2+, ER−/PR−/HER2+ and ER+/PR+/HER2− ([3]; dose dependent): reduces
autopsy, organs explored microscopically: signs of toxicity ([4]; all animals, 30, 60 and 100 mg/kg/day): no significant signs of toxicity
safety (body weight, histological study of the main organs) ([4]; mouse, in vivo, 100 mg/kg/day): safe
